From ChEMBL document CHEMBL4390652, “Design, biological evaluation and X-ray crystallography of nanomolar multifunctional ligands targeting simultaneously acetylcholinesterase and glycogen synthase kinase-3” (Eur J Med Chem, 2019)

Tests used:
[1] = target: Mitogen-activated protein kinase kinase kinase 19 (Homo sapiens) (UniProt Q56UN5); assay: Binding affinity to wild-type human partial length YSK4 (T1019 to H1328 residues) expressed in mammalian expression system assessed as residual binding level at 10 uM by Kinomescan method relative to control
[2] = target: Serine/threonine-protein kinase Sgk1 (Homo sapiens) (UniProt O00141); assay: Binding affinity to wild-type human partial length SGK (I60 to L431 residues) expressed in mammalian expression system assessed as residual binding level at 10 uM by Kinomescan method relative to control
[3] = target: Tyrosine-protein kinase Lyn (Homo sapiens) (UniProt P07948); assay: Binding affinity to wild-type human partial length LYN (C219 to Q511 residues) expressed in bacterial expression system assessed as residual binding level at 10 uM by Kinomescan method relative to control
[4] = target: Rhodopsin kinase GRK1 (Homo sapiens) (UniProt Q15835); assay: Binding affinity to wild-type human full length GRK1 (M1 to S563 residues) expressed in mammalian expression system assessed as residual binding level at 10 uM by Kinomescan method relative to control
[5] = target: Phosphatidylinositol 3-kinase C2 domain-containing subunit gamma (Homo sapiens) (UniProt O75747); assay: Binding affinity to wild-type human partial length PIK3C2G (M1 to I1446 residues) expressed in mammalian expression system assessed as residual binding level at 10 uM by Kinomescan method relative to control
[6] = system: Tyrosine-protein kinase ABL1 (Homo sapiens), P00519 [H396P]; assay: Binding affinity to human non-phosphorylated ABL1 H396P mutant (S229 to K512 residues) expressed in mammalian expression system assessed as residual binding level at 10 uM by Kinomescan method relative to control
[7] = target: MAP kinase-activated protein kinase 2 (Homo sapiens) (UniProt P49137); assay: Binding affinity to wild-type human partial length MAPKAPK2 (V48 to D345 residues) expressed in bacterial expression system assessed as residual binding level at 10 uM by Kinomescan method relative to control
[8] = target: Serine/threonine-protein kinase Nek5 (Homo sapiens) (UniProt Q6P3R8); assay: Binding affinity to wild-type human partial length NEK5 (M1 to M279 residues) expressed in bacterial expression system assessed as residual binding level at 10 uM by Kinomescan method relative to control
[9] = target: Serine/threonine-protein kinase PLK2 (Homo sapiens) (UniProt Q9NYY3); assay: Binding affinity to wild-type human partial length PLK2 (H58 to F354 residues) expressed in mammalian expression system assessed as residual binding level at 10 uM by Kinomescan method relative to control
[10] = system: Phosphatidylinositol 4,5-bisphosphate 3-kinase catalytic subunit alpha isoform (Homo sapiens), P42336 [H1047Y]; assay: Binding affinity to human partial length PIK3CA H1047Y mutant (R108 to N1068 residues) expressed in mammalian expression system assessed as residual binding level at 10 uM by Kinomescan method relative to control
[11] = target: NT-3 growth factor receptor (Homo sapiens) (UniProt Q16288); assay: Binding affinity to wild-type human partial length TRKC (Q531 to G825 residues) expressed in mammalian expression system assessed as residual binding level at 10 uM by Kinomescan method relative to control
[12] = target: Dual specificity mitogen-activated protein kinase kinase 5 (Homo sapiens) (UniProt Q13163); assay: Binding affinity to wild-type human partial length MEK5 (L98 to P448 residues) expressed in mammalian expression system assessed as residual binding level at 10 uM by Kinomescan method relative to control
[13] = target: G protein-coupled receptor kinase 3 (Homo sapiens) (UniProt P35626); assay: Binding affinity to wild-type human full length GRK3 (M1 to L688 residues) expressed in mammalian expression system assessed as residual binding level at 10 uM by Kinomescan method relative to control
[14] = target: Leukocyte tyrosine kinase receptor (Homo sapiens) (UniProt P29376); assay: Binding affinity to wild-type human partial length LTK (P422 to S744 residues) expressed in bacterial expression system assessed as residual binding level at 10 uM by Kinomescan method relative to control
[15] = target: TRAF2 and NCK-interacting protein kinase (Homo sapiens) (UniProt Q9UKE5); assay: Binding affinity to wild-type human partial length TNIK (D4 to K311 residues) expressed in bacterial expression system assessed as residual binding level at 10 uM by Kinomescan method relative to control
[16] = target: Serine/threonine-protein kinase MAK (Homo sapiens) (UniProt P20794); assay: Binding affinity to wild-type human partial length MAK (M1 to P314 residues) expressed in bacterial expression system assessed as residual binding level at 10 uM by Kinomescan method relative to control
[17] = target: Cyclin-dependent kinase 19 (Homo sapiens) (UniProt Q9BWU1); assay: Binding affinity to wild-type human partial length CDK11 (M1 to N360 residues) expressed in bacterial expression system assessed as residual binding level at 10 uM by Kinomescan method relative to control
[18] = target: Mitogen-activated protein kinase 6 (Homo sapiens) (UniProt Q16659); assay: Binding affinity to wild-type human partial length ERK3 (M1 to P413 residues) expressed in bacterial expression system assessed as residual binding level at 10 uM by Kinomescan method relative to control
[19] = target: Ephrin type-A receptor 6 (Homo sapiens) (UniProt Q9UF33); assay: Binding affinity to wild-type human partial length EPHA6 (Y700 to E1046 residues) expressed in bacterial expression system assessed as residual binding level at 10 uM by Kinomescan method relative to control
[20] = target: Cyclin-dependent kinase 18 (Homo sapiens) (UniProt Q07002); assay: Binding affinity to wild-type human full length PCTK3 (M3 to F474 residues) expressed in bacterial expression system assessed as residual binding level at 10 uM by Kinomescan method relative to control
[21] = target: Cyclin-dependent kinase-like 5 (Homo sapiens) (UniProt O76039); assay: Binding affinity to wild-type human partial length CDKL5 (M1 to S337 residues) expressed in mammalian expression system assessed as residual binding level at 10 uM by Kinomescan method relative to control
[22] = target: Casein kinase I isoform alpha (Homo sapiens) (UniProt P48729); assay: Binding affinity to wild-type human partial length CSNK1A1 (M1 to L450 residues) expressed in mammalian expression system assessed as residual binding level at 10 uM by Kinomescan method relative to control
[23] = target: Phosphatidylinositol 4,5-bisphosphate 3-kinase catalytic subunit gamma isoform (Homo sapiens) (UniProt P48736); assay: Binding affinity to wild-type human partial length PIK3CG (S144 to A1102 residues) expressed in mammalian expression system assessed as residual binding level at 10 uM by Kinomescan method relative to control
[24] = target: Dual specificity mitogen-activated protein kinase kinase 6 (Homo sapiens) (UniProt P52564); assay: Binding affinity to wild-type human partial length MEK6 (K36 to D334 residues) expressed in bacterial expression system assessed as residual binding level at 10 uM by Kinomescan method relative to control
Sequence of Dual specificity mitogen-activated protein kinase kinase 6 (Homo sapiens) (P52564 whole entry, the tested form may be a part): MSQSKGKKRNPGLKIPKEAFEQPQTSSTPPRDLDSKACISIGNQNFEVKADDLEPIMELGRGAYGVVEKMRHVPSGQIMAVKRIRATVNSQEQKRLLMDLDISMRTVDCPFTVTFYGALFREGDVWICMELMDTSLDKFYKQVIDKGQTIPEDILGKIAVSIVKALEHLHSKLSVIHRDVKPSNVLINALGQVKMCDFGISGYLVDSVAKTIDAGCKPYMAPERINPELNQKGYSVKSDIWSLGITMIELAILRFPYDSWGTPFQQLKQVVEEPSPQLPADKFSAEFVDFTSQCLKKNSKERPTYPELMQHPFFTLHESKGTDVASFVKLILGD

Sequence of Cyclin-dependent kinase 18 (Homo sapiens) (Q07002 whole entry, the tested form may be a part): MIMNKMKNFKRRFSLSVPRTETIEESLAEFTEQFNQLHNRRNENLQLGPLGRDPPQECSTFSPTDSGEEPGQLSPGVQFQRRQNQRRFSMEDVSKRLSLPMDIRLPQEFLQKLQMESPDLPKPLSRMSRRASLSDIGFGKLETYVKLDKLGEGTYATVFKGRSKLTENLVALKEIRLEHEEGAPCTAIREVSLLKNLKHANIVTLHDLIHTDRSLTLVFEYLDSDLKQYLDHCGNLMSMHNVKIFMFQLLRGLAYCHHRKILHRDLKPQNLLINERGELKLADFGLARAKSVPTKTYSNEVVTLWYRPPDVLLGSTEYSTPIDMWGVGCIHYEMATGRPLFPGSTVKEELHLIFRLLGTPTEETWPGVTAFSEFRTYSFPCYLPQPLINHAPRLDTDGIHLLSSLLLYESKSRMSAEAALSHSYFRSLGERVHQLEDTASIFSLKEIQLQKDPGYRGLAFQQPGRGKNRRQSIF
Sequence of NT-3 growth factor receptor (Homo sapiens) (Q16288 32-839 limits assumed): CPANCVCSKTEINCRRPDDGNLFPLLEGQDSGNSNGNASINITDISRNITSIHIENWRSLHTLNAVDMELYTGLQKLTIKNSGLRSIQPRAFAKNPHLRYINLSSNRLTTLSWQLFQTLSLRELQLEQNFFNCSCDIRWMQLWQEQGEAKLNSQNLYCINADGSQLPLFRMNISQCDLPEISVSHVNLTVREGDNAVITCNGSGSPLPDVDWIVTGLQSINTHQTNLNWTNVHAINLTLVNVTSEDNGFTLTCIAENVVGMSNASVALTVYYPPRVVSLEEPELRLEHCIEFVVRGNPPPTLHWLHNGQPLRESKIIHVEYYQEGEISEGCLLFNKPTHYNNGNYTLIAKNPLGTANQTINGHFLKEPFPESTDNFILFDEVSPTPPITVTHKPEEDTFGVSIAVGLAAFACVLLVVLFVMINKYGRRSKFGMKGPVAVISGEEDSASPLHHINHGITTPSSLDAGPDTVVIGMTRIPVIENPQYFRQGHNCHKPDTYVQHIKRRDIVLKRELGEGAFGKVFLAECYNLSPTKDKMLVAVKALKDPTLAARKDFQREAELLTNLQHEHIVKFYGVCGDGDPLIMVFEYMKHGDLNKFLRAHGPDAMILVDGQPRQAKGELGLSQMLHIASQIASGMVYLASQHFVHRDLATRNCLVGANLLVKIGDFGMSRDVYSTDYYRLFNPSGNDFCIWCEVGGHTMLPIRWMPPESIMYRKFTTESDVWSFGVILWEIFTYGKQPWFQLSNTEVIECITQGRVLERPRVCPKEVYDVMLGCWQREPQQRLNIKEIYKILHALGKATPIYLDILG
Sequence of Leukocyte tyrosine kinase receptor (Homo sapiens) (P29376 whole entry, the tested form may be a part): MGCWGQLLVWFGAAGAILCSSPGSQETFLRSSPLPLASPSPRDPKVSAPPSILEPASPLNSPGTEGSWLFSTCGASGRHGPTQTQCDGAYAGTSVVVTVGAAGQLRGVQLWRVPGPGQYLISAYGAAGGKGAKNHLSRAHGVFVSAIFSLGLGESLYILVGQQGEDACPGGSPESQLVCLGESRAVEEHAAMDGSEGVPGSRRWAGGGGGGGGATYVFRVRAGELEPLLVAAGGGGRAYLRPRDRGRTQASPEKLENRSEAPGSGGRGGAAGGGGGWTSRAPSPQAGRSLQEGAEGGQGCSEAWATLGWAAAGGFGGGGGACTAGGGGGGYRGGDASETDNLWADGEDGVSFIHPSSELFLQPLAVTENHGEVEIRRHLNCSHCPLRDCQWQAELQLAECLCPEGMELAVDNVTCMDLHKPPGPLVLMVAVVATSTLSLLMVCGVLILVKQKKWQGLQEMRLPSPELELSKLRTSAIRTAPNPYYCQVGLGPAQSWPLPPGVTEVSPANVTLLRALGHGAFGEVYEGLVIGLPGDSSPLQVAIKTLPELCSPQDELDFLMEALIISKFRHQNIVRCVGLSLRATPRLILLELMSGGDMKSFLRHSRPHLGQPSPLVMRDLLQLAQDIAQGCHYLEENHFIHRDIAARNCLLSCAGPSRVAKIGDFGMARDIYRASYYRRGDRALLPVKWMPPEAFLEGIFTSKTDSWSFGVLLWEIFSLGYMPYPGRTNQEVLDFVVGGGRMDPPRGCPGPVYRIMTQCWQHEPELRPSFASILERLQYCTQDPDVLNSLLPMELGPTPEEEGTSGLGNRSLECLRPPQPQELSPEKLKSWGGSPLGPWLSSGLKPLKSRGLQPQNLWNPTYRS
Sequence of Serine/threonine-protein kinase Nek5 (Homo sapiens) (Q6P3R8 whole entry, the tested form may be a part): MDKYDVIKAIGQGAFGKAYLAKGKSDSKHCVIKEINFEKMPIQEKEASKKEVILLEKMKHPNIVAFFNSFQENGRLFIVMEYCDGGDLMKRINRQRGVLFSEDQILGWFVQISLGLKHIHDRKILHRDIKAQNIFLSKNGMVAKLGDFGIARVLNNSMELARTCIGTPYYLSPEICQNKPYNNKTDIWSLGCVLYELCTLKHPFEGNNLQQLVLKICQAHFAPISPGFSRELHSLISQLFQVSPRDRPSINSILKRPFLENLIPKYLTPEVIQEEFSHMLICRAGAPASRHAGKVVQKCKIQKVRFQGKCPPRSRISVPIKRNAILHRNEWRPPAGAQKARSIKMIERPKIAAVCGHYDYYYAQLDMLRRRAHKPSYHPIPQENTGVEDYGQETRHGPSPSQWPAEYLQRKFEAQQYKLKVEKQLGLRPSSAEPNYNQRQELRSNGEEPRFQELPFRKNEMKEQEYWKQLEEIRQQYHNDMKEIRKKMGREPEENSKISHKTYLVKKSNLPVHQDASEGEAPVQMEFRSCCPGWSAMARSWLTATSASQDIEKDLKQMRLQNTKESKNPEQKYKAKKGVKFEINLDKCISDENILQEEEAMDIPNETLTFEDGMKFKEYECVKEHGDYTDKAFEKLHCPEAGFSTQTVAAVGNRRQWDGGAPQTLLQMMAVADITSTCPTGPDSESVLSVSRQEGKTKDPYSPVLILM
Sequence of Serine/threonine-protein kinase Sgk1 (Homo sapiens) (O00141 whole entry, the tested form may be a part): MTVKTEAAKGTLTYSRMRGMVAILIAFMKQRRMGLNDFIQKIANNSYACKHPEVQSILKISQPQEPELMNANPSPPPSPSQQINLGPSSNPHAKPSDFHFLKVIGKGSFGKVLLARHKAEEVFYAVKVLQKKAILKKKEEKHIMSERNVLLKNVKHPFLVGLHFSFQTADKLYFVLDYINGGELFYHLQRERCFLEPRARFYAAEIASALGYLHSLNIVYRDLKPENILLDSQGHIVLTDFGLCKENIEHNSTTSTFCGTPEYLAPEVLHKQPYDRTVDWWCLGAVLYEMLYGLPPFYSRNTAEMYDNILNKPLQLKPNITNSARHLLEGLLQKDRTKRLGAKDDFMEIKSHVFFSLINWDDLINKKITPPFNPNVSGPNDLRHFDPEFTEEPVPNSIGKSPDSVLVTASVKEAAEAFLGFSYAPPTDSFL
Sequence of Rhodopsin kinase GRK1 (Homo sapiens) (Q15835 whole entry, the tested form may be a part): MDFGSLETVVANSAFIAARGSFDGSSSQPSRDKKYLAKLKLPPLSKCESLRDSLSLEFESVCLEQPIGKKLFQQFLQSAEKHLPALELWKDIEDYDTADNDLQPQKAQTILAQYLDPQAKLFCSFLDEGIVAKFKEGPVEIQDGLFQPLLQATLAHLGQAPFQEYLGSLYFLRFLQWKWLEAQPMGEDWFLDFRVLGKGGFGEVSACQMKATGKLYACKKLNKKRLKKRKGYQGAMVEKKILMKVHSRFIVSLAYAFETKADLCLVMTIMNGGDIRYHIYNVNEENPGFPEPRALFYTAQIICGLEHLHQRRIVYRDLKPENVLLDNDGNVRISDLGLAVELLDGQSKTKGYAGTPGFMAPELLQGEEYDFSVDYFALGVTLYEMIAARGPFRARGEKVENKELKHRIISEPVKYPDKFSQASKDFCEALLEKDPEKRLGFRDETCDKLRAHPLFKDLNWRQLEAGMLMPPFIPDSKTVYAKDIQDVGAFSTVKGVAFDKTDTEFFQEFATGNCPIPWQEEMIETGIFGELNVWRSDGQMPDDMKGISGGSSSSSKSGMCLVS
Sequence of Tyrosine-protein kinase Lyn (Homo sapiens) (P07948 2-512 limits assumed): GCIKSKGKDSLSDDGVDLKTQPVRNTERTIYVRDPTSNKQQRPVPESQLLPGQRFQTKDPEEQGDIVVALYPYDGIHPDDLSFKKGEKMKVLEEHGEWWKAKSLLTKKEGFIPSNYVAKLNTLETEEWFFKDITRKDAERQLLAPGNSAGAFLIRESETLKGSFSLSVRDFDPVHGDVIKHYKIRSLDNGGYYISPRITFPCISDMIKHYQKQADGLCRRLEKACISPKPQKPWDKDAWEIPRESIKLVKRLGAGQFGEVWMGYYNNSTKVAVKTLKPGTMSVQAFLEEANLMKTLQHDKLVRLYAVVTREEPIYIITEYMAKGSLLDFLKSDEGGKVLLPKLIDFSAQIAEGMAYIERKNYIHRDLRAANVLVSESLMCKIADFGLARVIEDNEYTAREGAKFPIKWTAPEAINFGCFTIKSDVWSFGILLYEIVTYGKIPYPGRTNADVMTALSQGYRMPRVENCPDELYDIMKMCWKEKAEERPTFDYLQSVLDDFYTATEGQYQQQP

O=C(Nc1cc(-c2cn(CCNc3c4c(nc5ccccc35)CCCC4)nn2)ccn1)Nc1cccc2c1C1CCCCN1C2=O (racemic)
Activity [1]: 8.5% | Activity [2]: 0.3% | Activity [3]: 83% | Activity [4]: 40% | Activity [5]: 44% | Activity [6]: 1.8% | Activity [7]: 100% | Activity [8]: 82% | Activity [9]: 80% | Activity [10]: 86% | Activity [11]: 14% | Activity [12]: 1.6% | Activity [13]: 100% | Activity [14]: 100% | Activity [15]: 48% | Activity [16]: 52% | Activity [17]: 94% | Activity [18]: 8.7% | Activity [19]: 97% | Activity [20]: 6.2% | Activity [21]: 0.35% | Activity [22]: 5.3% | Activity [23]: 100% | Activity [24]: 63%
